Test results reported in US20060293343A1, “Pyrimidine derivatives” (Asahi Kasei Pharma Corporation, priority 2005, published 2006).
Where two headings read alike, the source gives them in different places.

What was measured:
[1] = test system: TNF-α production induced by LPS; assay: Inhibitory action of TNF-α production (in vivo) induced by LPS using mouse
Description: C3H/He mouse (manufactured by Japan SLC Co., male) was used as a test animal. A desired concentration of the test sample was suspended in 0.5% methyl cellulose solution. The weight of the mouse was measured, and the test compound solution was orally administered at a dosage of 10 mL/kg while only 0.5% methyl cellulose was administered to the reference group. One group contained 5 to 7 mice. LPS was dissolved in physiological saline, and 10 μg was intraperitoneally administered to each mouse. The test compound was administered first, then LPS was administered 60 minutes thereafter. After 90 minutes, the blood was sampled from the large abdominal vein with the heparin, and a plasma was obtained by centrifugation. The content of TNF-α in the plasma was measured according to the protocol attached to TNF-α ELISA kit (manufactured by R & D System Co.). […] The suppression action of TNF-α production was represented by ED50 (mg/kg). Ex. No. in Table 11 denotes the example No.

C3H/He mouse = assay: Gastric emptying test of mouse (in vivo); details: oral, test meal 60 minutes after compound
Description: C3H/He mouse (manufactured by Japan SLC Co., male) fasted for 21 to 24 hours but allowed free access to water, was used as an experimental animal. A desired concentration of the test sample was suspended in 0.5% methyl cellulose solution. The weight of the mouse was measured, and the test compound solution was orally administered at a dosage of 10 mL/kg while only 0.5% methyl cellulose solution was administered to the reference group. One group contained 5 mice. A 1.5% methyl cellulose solution containing 0.05% phenol, red was used as a test meal solution. The test compound was administered, and 0.2 ml of the test meal was orally administered at 60 minutes thereafter. […] A 10% trichloroacetic acid solution (0.5 mL) was added to 5 mL of the supernatant, which was further centrifuged to remove proteins. A solution prepared by adding 125 μL of 2 N NaOH to the supernatant (1 mL) obtained by centrifugation was measured with a spectrophotometer (550 nm), and inhibition of transfer from the stomach to the small intestine was expressed by IC50 (mg/kg).

[2] = test system: TNF-α production in LPS-stimulated mouse mononuclear cells; assay: Inhibitory action of TNF-α production using mouse mononuclear cells (in vitro); format: cell-based; details: mouse mononuclear cells from peripheral blood of C3H/He mouse; LPS 5 μg/mL, 21 hours; TNF-α ELISA; read-out: IC50 (nM), suppression action of TNF-α production
Description: Mouse mononuclear cells were isolated from the peripheral blood of C3H/He mouse (manufactured by Japan SLC Co., male), and were suspended in a culture medium (trade name RPMI 1640 manufactured by Gibco Co.) containing 10% bovine serum. The cells were seeded in a 96 well plate as 50,000 cells/well, the test compound was added at a desired concentration, and the plate was allowed to stand in an incubator containing 5% CO2 at .37° C. for 15 minutes. LPS was added thereafter at a final concentration of 5 μg/mL, and the plate was allowed to stand in the incubator for 21 hours.
The culture medium containing produced TNF-α was retrieved, and the amount of TNF-α was measured according to the protocol attached to mouse TNF-α ELISA kit (manufactured by R & D Systems Co.). […] The suppression action of TNF-α was expressed-by […] (nM). Ex. No. in Table 9 denotes the example No.

Marshall ferret = assay: Vomiting action using ferret; format: in vivo; details: oral, observed for more than 6 hours
Description: Marshall ferret (male, weight 1 to 1.5 kg, manufactured by Charles River Laboratories Japan, Inc.) was used. A desired concentration of the test compound was suspended in 0.5% methyl cellulose solution. The weight of a ferret was measured, and the solution of the test compound was orally administered at a dosage of 1 to 8 ml/kg. Only 0.5% methyl cellulose solution was administered to the reference group. One group contained 4 animals.

[3] = test system: rabbit gastric gland cells; assay: Action on gastric acid secretion ability (in vitro), 14C-aminopyrine uptake in gastric gland cells; format: cell-based; details: Oryctolagus cuniculus, histamine 0.3 to 1.0 μM
Description: Gastric acid secretion ability (as an index of the side effect) was tested according to the methods by BergLindh and Obrink (Acta Physiol. Scand. 97:401-414, 1976) and Sack and Speney (Am. J. Physiol. 243:G313-G319, 1982).
Gastric gland cells were prepared by collagenase treatment using male rabbit (Japanese white strain, manufactured by Oriental Yeast Co.).
The test compound, ^14C-aminopyrine (1.0 nmol/mL; 0.1 μCi/nmol) and histamine (0.3 to 1.0 μM) were incubated for a given time period, and gastric gland cell pellets obtained after centrifugation and washing were lysed with 100 μL of 1N-KOH. The lysate was filled in a scintillation vial containing a scintillation cocktail (manufactured by Perkin Elmer Co.) to measure the radioactivity. The gastric acid secretion action by the test compound was calculated as EC50, and the ratio of the activity relative to IC50 of suppression of TNF-α production described in Test Example 2 (degree of dissociation A) was determined from the following equation. The larger degree of dissociation A is more preferable. The results in Table 10 represent that secretion of the gastric acid ability(EC50) was lower activity in the compound of the invention, salts thereof or prodrugs thereof as compared with the suppression effect of TNF-α production(IC50). Ex. No. in Table 10 denotes the example No.
Degree of dissociation A=EC50 of gastric acid secretion ability/IC50 of suppression of TNF-α production

PDE4 = test system: T1, PDE4; assay: Inhibitory action of PDE4 enzyme activity (PDE4 purified from U937 cells); format: biochemical; details: PDE4 fraction purified from U937 cells; [3H]-cAMP substrate; 30° C., 10 minutes
T1 construct: The PDE4 enzyme was purified from U937 cells that are the cells derived from lymphoma
Description: (1) Purification of PDE4 from U937 Cells
The PDE4 enzyme was purified from U937 cells that are the cells derived from lymphoma. U937 cells were suspended in buffer solution A (20 mM Tris-HCl(pH 6.5), 1 mM MgCl2, 0.1 mM EGTA, 3 mM 2-mercaptoethanol) containing protease. inhibitor cocktail (manufactured by Sigma Co.), and a soluble fraction was obtained by centrifugation after ultrasonic disintegration (100,000 G, 30 minutes, 4° C.). […] Each fraction was tested for the cAMP metabolized PDE activity to identify the fractions containing PDE4 enzyme.
(2) Measurement of Inhibitory Activity of PDE4 Enzyme Activity
A desired concentration of the test compound was allowed to react in a reaction mixture (100 μL; 40 mM Tris-HCl (pH 7.4), 5 MM MgCl2, 4 mM 2-mercaptoethanol, […] cAMP, 0.83 μCi [^3H]-cAMP and PDE4 fraction) at 30° C. for 10 minutes. The enzyme reaction was stopped by adding 25 μL of trichloroacetic acid to the reaction mixture. The reaction solution was charged on a neutral alumina column equilibrated with 0.1 M of 2-[[tris(hydroxylmethyl)methyl]-amino]-1-ethanesulfonic acid (TES) buffer (pH 8.0) and, after washing the column with a sufficient amount of 0.1 M TES buffer solution, the column was eluted with 2N NaOH. A 500 μL aliquot of the eluate containing [^3H]-5′AMP product was filled in a scintillation vial containing the scintillation cocktail (5 ml, manufactured by Perkin Elmer Co.) to measure radioactivity. […] The inhibitory action of PDE4 enzyme activity was expressed by IC50 (nM). Ex. No. in Table 8 denotes the example No.

[4] = C3H/He mouse, orally administered 60 minutes before LPS 10 μg intraperitoneally, plasma TNF-α 90 minutes after LPS, read-out: ED50 (mg/kg), suppression action of TNF-α production
[5] = mouse, oral, LPS 60 minutes after compound, plasma TNF-α after 90 minutes, read-out: suppression of TNF-α production ED50

SMILES: C=CCc1c(CC)nc(-c2ccsc2)nc1Nc1ccc2cc(C(=O)O)ccc2c1 [Example 17]
- ED50 [1, 4]: 3 mg/kg
- ED50 [1, 5]: 3 mg/kg
- gastric emptying test IC50 (inhibition of transfer from the stomach to the small intestine) (C3H/He mouse): 14 mg/kg
- IC50 [2]: 24 nM
- incidence of vomiting by the ferret (Marshall ferret; dosage of 50 mg/kg): no incidence of vomiting
- EC50 [3]: 1690 nM
- IC50 (PDE4): 9 nM

SMILES: CCc1c(C)nc(-c2ccsc2)nc1Nc1ccc(C(=O)O)cc1 [Example 18]
- ED50 [1, 4]: 37 mg/kg
- IC50 [2]: 202 nM
- IC50 (PDE4): 1680 nM

SMILES: CCc1nc(-c2ccsc2)nc(Nc2ccc(C(=O)O)cc2)c1CC [Example 57]
- ED50 [1, 4]: 24 mg/kg
- IC50 [2]: 44 nM
- EC50 [3]: 460 nM

SMILES: CCc1nc(-c2ccsc2)nc(Nc2ccc(CC(=O)O)cc2)c1CC [Example 58]
- ED50 [1, 4]: 8 mg/kg
- IC50 [2]: 695 nM
- EC50 [3]: 1310 nM

SMILES: CCc1nc(-c2ccsc2)nc(Nc2ccc3cc(C(=O)O)ccc3c2)c1CC [Example 59]
- ED50 [1, 4]: 6 mg/kg
- IC50 [2]: 69 nM
- EC50 [3]: 227 nM
- IC50 (PDE4): 41 nM

SMILES: CCc1c(C)nc(-c2ccc(SC)s2)nc1Nc1ccc(CC(=O)O)cc1 [Example 78]
- IC50 [2]: 171 nM
- EC50 [3]: 38400 nM

SMILES: CCc1nc(-c2cccs2)nc(Nc2ccc(C(=O)O)cc2)c1CC [Example 83]
- ED50 [1, 4]: 22 mg/kg
- IC50 [2]: 46 nM
- EC50 [3]: 169 nM

SMILES: CCc1nc(-c2cccs2)nc(Nc2ccc(CC(=O)O)cc2)c1CC [Example 84]
- ED50 [1, 4]: 17 mg/kg
- IC50 [2]: 533 nM
- EC50 [3]: 1660 nM

SMILES: CCc1c(C)nc(-c2ccc(Br)s2)nc1Nc1ccc(CC(=O)O)cc1 [Example 148]
- ED50 [1, 4]: 12 mg/kg
- ED50 [1, 5]: 12 mg/kg
- gastric emptying test IC50 (inhibition of transfer from the stomach to the small intestine) (C3H/He mouse): 85 mg/kg
- IC50 [2]: 676 nM
- incidence of vomiting by the ferret (Marshall ferret; dosage of 100 mg/kg): no incidence of vomiting
- EC50 [3]: 10100 nM
